Experimental data reported in US20090317326A1, “RADIOFLUORINATION METHODS” (priority 2007, published 2009).
Like-named read-outs stand apart in the source and are kept apart here. Starred links: 1 amine or outer side, 2 acyl side, 3 side chain; linkers in the order of their positions; H or OH if unused. Non-standard residues stand in square brackets, D forms with d. Residues, ends and D or L forms follow the SMILES beside them. *: point of attachment. γ4hIle = CC[C@H](C)[C@@H](CCC(=O)[*:2])N[*:1]; Benzoyl(3-CN,4-F) = N#Cc1cc(C(=O)*)ccc1F; Ava = NCCCCC(=O)O

What was measured:
[1] = tested on: human prostate cancer PC-3; conditions: mouse, in vivo
Protocol: (§1) Nude mice bearing human prostate cancer PC-3 were injected with 100 μl radioactive peptide dissolved in PBS containing 135 kBq per animal. For blocking 100 μg unlabeled gastrin-releasing peptide was co-injected. One hour post injection the animals were sacrificed and organs dissected for counting in a gamma-counter. Values are expressed as percent of the injected dose per gram organ weight.

[2] = tested on: human prostate cancer PC-3; assay: Biodistribution of F-18 bombesin analogs in nude mice bearing human prostate cancer PC-3; conditions: for Blocking: protocol as above (100 μg unlabeled gastrin-releasing peptide co-injected)
Protocol: as §1

tumor = conditions: FIG. 5; versus tumor-tissue ratio of 18F-choline (FCH) and 18F-FB-Lys-BN
[3] = Biodistribution of F-18 bombesin analogs in nude mice bearing human prostate cancer PC-3; conditions: nude, mouse, 135 kBq per animal, total radioactivity
Protocol: as §1

Molecule	Panc. % ID/g [1] [% ID/g]	T/B [1]	T/M [1]	Blocking ([2]; Table 1)	tumor-tissue ratio relative to 18F-choline (FCH) and 18F-FB-Lys-BN (tumor) [time higher]	tissue uptake at 1 h ([3]; blood) [%ID/g]	tissue uptake at 1 h ([3]; kidneys) [%ID/g]	tissue uptake at 1 h ([3]; liver) [%ID/g]	tissue uptake at 1 h ([3]; muscle) [%ID/g]	tissue uptake at 1 h ([3]; pancreas) [%ID/g]	tissue uptake at 1 h ([3]; tumor) [%ID/g]	tissue to tissue ratio at 1 h ([3]; tumor/blood)	tissue to tissue ratio at 1 h ([3]; tumor/muscle)	T/B ([2]; Table 1, tumor/blood ratio)	T/M ([2]; Table 1, tumor/muscle ratio)	specificity of targeting (blocking) ([2]; blocking values low in tumor, unchanged for the other tissue)	accumulation in tumor ([2]; conclusion from biodistribution, 1 h)
3-CN,4-F-Benzoyl-Arg-Ava-Gln-Trp-Ala-Val-Gly-His(3Me)-Sta-Leu-NH2 (RXQWAVGHXL; non-natural residues)	4.16	5.65	13.84	30-90%													
CC[C@H](C)[C@@H](CCC(=O)N[C@@H](CC(C)C)C(N)=O)NC(=O)[C@H](Cc1c[nH]cn1)NC(=O)CNC(=O)[C@@H](NC(=O)[C@H](C)NC(=O)[C@H](Cc1c[nH]c2ccccc12)NC(=O)[C@H](CCC(N)=O)NC(=O)CCCCNC(=O)c1ccc(F)c(C#N)c1)C(C)C [3-CN,4-F-Bz-Ava-Gln-Trp-Ala-Val-Gly-His-FA01010-Leu-NH2] ({Benzoyl(3-CN,4-F)-Ava}-QWAVGH[γ4hIle]L-NH2)				>70%	2.5	0.05 ± 0.01	0.24 ± 0.02	0.35 ± 0.13	0.02	0.34 ± 0.03	1 ± 0.01	21 ± 11.9	60 ± 29.5	21.03	59.99	specific	accumulates in tumor
3-CN,4-F-Benzoyl-Arg-Ava-Gln-Trp-Ala-Val-NMeGly-His-Sta-Leu-NH2 (RXQWAVGHXL; N-methyl; non-natural residues)	1.3	6.82	12.75	40-70%													
4F,3CN-Bnz-Arg-Ava-Gln-Trp-Ala-Val-NMeGly-His(3Me)-Sta-Leu-NH2 (RXQWAVGHXL; N-methyl; non-natural residues)	3.51	2.57	16.77	50-80%													
3-CF3,4-F-Benzoyl-Arg-Ava-Gln-Trp-Ala-Val-NMeGly-His-Sta-Leu-NH2 (RXQWAVGHXL; N-methyl; non-natural residues)	1.42	4.56	25.3	>70%													
